{"source": "paper PMC10445290", "about": "“Enantiomeric Fractions Reveal Differences in the Atropselective Disposition of 2,2′,3,5′,6-Pentachlorobiphenyl (PCB 95) in Wildtype, Cyp2abfgs-Null, and CYP2A6-Humanized Mice” (Chemical Research in Toxicology, 2023)", "key": {"[1]": {"assay": "Atropisomeric analysis of PCB 95 (enantiomeric fraction, EF) in tissues by chiral GC-ECD", "assay_type": "in vivo, mice", "conditions": "racemic PCB 95 1.0 mg/kg oral, 24 h, EF = AE1/(AE1 + AE2)", "protocol": "Adult male and female wild-type (WT) C57BL/6 mice, KO, and KI mice (4 months old) were exposed to racemic PCB 95. Mice were randomly assigned to exposure groups and received a single oral dose of PCB 95 (1.0 mg/kg) in stripped corn oil (10 mL/kg; lot# A0395699; cat# 801-03-7; Fisher Scientific) via gavage (5–7 mice per group). Control animals received corn oil alone (1–3 mice per group) to assess the potential background contamination with PCB 95. Animals were euthanized 24 h after PCB 95 exposure. Blood was collected from the heart and placed in pre-weighed glass vials with 80 μL of ethylenediaminetetraacetic acid solution (EDTA, 7.5%, w/w). The amount of blood in each vial was determined by weight prior to sample extraction. Adipose, brain, and liver tissues were excised from each animal and individually wrapped in aluminum foil. Samples were stored at −80 °C in separate plastic bags and shipped on dry ice to the University of Iowa for analysis.\nAtropisomeric analyses of PCB 95 were performed with all samples using an Agilent 7890A gas chromatograph with a ^63Ni-μECD detector and a Chiralsil-Dex CB (25 m length, 250 μm inner diameter, 0.25 μm film thickness; Agilent, Santa Clara, CA, USA) following a published method with modifications.[48] The following temperature program was used for the atropisomeric analysis: 50 °C, hold for 1 min, 10 °C/min to 150 °C, hold for 65 min, 15 °C/min to 200 °C, and hold for 15 min. The injector and detector temperature was 250 °C, and the helium flow was 3.0 mL/min. The EF values of PCB 95 were calculated as EF = AE1/(AE1 + AE2) where AE1 and AE2 are the peak area of the first (E1) and the second eluting (E2) atropisomers, respectively. E1- and E2-PCB 95 correspond to aR- and aS-PCB 95, respectively.[16],[25]\nMethod blanks, blank tissue samples, and an ongoing precision and recovery standard were extracted in parallel with each sample batch. The method detection limits (MDLs) were determined based on method blanks (Table S3). Limits of quantification (LOQ) in different matrices were established based on the corresponding tissue blanks (Table S3). Surrogate standards, PCB 117 and 4′-159, were added to all samples to assess the precision and reproducibility of the analytical methods (Table S4). In addition, an ongoing precision and surrogate standard was in parallel extracted from both method and tissue blanks with each sample batch (Table S5). The resolution of atropisomers of PCB 95 on the Chiralsil Dex CB column was 1.27, calculated with the formula Rs = [tE2 – tE1)/(0.5 × (WE1 + WE2)], where tE1 and tE2 are the retention times of peaks 1 and 2, and WE1 and WE2 indicate the width of the peak E1 and E2. The EF value of the racemic standard of PCB 95 was 0.498 ± 0.004 (n = 7).\nLevels of PCB 95 and its metabolites, expressed as ng per gram wet weight (ng/g), and EF values are reported as mean ± standard deviation (Tables S6 and S7). The statistical analyses were performed with two-way ANOVA with the Bonferroni model in GraphPad Prism 9.4.1 (Tables S8 and S9). In addition, OH-PCB metabolite profiles were compared using the similarity coefficient, cos θ (Tables S10 and S11).[49] The cos θ ranges from 0 to 1, where a value of 0 indicates completely different profiles and a value of 1 indicates identical profiles. The original data underlying this study are openly available through the Iowa Research Online repository at https://doi.org/10.25820/data.006613."}, "[2]": {"conditions": "cited from earlier work"}, "[3]": {"conditions": "FKI, female CYP2A6-humanized mice"}, "[4]": {"conditions": "FKO, female Cyp2abfgs-null mice"}, "[5]": {"conditions": "MKI, male CYP2A6-humanized mice"}}, "note": "Like-named read-outs stand apart in the source and are kept apart here."}
{"smiles": "Clc1ccc(Cl)c(-c2c(Cl)ccc(Cl)c2Cl)c1", "note": "[PCB 95, 2,2′,3,5′,6-pentachlorobiphenyl]", "values": [{"measurement": "Enantiomeric fraction (EF) in adipose", "setting": "[1]; [3]", "value": "0.35 ± 0.02"}, {"measurement": "Enantiomeric fraction (EF) in blood", "setting": "[1]; [3]", "value": "0.28 ± 0.07"}, {"measurement": "Enantiomeric fraction (EF) in brain", "setting": "[1]; [3]", "value": "0.29 ± 0.01"}, {"measurement": "Enantiomeric fraction (EF) in liver", "setting": "[1]; [3]", "value": "0.24 ± 0.03"}, {"measurement": "Enantiomeric fraction (EF) in adipose", "setting": "[1]; [4]", "value": "0.41 ± 0.05"}, {"measurement": "Enantiomeric fraction (EF) in blood", "setting": "[1]; [4]", "value": "0.37 ± 0.07"}, {"measurement": "Enantiomeric fraction (EF) in brain", "setting": "[1]; [4]", "value": "0.39 ± 0.05"}, {"measurement": "Enantiomeric fraction (EF) in liver", "setting": "[1]; [4]", "value": "0.32 ± 0.06"}, {"measurement": "Enantiomeric fraction (EF) in adipose", "setting": "[1]; FWT, female wildtype mice", "value": "0.33 ± 0.02"}, {"measurement": "Enantiomeric fraction (EF) in blood", "setting": "[1]; FWT, female wildtype mice", "value": "0.32 ± 0.07"}, {"measurement": "Enantiomeric fraction (EF) in brain", "setting": "[1]; FWT, female wildtype mice", "value": "0.25 ± 0.03"}, {"measurement": "Enantiomeric fraction (EF) in liver", "setting": "[1]; FWT, female wildtype mice", "value": "0.20 ± 0.03"}, {"measurement": "Enantiomeric fraction (EF) in adipose", "setting": "[1]; [5]", "value": "0.36 ± 0.02"}, {"measurement": "Enantiomeric fraction (EF) in blood", "setting": "[1]; [5]", "value": "0.31 ± 0.03"}, {"measurement": "Enantiomeric fraction (EF) in brain", "setting": "[1]; [5]", "value": "0.32 ± 0.02"}, {"measurement": "Enantiomeric fraction (EF) in liver", "setting": "[1]; [5]", "value": "0.27 ± 0.03"}, {"measurement": "Enantiomeric fraction (EF) in adipose", "setting": "[1]; MKO, male Cyp2abfgs-null mice", "value": "0.38 ± 0.03"}, {"measurement": "Enantiomeric fraction (EF) in blood", "setting": "[1]; MKO, male Cyp2abfgs-null mice", "value": "0.35 ± 0.04"}, {"measurement": "Enantiomeric fraction (EF) in brain", "setting": "[1]; MKO, male Cyp2abfgs-null mice", "value": "0.34 ± 0.03"}, {"measurement": "Enantiomeric fraction (EF) in liver", "setting": "[1]; MKO, male Cyp2abfgs-null mice", "value": "0.28 ± 0.04"}, {"measurement": "Enantiomeric fraction (EF) in adipose", "setting": "[1]; MWT, male wildtype mice", "value": "0.37 ± 0.01"}, {"measurement": "Enantiomeric fraction (EF) in blood", "setting": "[1]; MWT, male wildtype mice", "value": "0.28 ± 0.02"}, {"measurement": "Enantiomeric fraction (EF) in brain", "setting": "[1]; MWT, male wildtype mice", "value": "0.31 ± 0.02"}, {"measurement": "Enantiomeric fraction (EF) in liver", "setting": "[1]; MWT, male wildtype mice", "value": "0.26 ± 0.02"}, {"measurement": "Mean PCB 95 blood level", "setting": "[2]; corresponding dams, exposure via diet through gestation and lactation", "value": 16, "unit": "ng/g"}, {"measurement": "PCB 95 levels in the liver", "setting": "[2]; corresponding offspring on postnatal day 21", "value": 150, "unit": "ng/g wet weight"}, {"measurement": "PCB 95 levels in brain", "setting": "[2]; dams euthanized on postnatal day 21", "value": 47, "unit": "ng/g"}, {"measurement": "PCB 95 levels in adipose tissue", "setting": "[2]; dams exposed during gestation and lactation, high dose 6.0 mg/kg bw/d", "value": "11,600 ng/g"}, {"measurement": "PCB 95 levels in adipose tissue", "setting": "[2]; dams exposed during gestation and lactation, low dose 0.1 mg/kg bw/d", "value": 170, "unit": "ng/g"}, {"measurement": "PCB 95 levels in blood", "setting": "[2]; dams exposed orally during gestation and lactation, high dose 6.0 mg/kg bw/d", "value": 52, "unit": "ng/g"}, {"measurement": "PCB 95 levels in blood", "setting": "[2]; dams exposed orally during gestation and lactation, low dose 0.1 mg/kg bw/d", "value": "not detected"}, {"measurement": "PCB 95 levels in the liver", "setting": "[2]; dams exposed throughout gestation and lactation", "value": 120, "unit": "ng/g wet weight"}, {"measurement": "PCB 95 levels in the liver", "setting": "[2]; dams exposed to racemic PCB 95 during gestation and lactation, high dose 6.0 mg/kg bw/d", "value": 700, "unit": "ng/g"}, {"measurement": "PCB 95 levels in the liver", "setting": "[2]; dams exposed to racemic PCB 95 during gestation and lactation, low dose 0.1 mg/kg bw/d", "value": 12, "unit": "ng/g"}, {"measurement": "PCB 95 levels in adipose tissue", "setting": "[2]; female mice, sub-chronic oral exposure, 0.1 mg/kg bw/d", "value": 1800, "unit": "ng/g"}, {"measurement": "PCB 95 levels in adipose tissue", "setting": "[2]; female mice, sub-chronic oral exposure, 6.0 mg/kg bw/d", "value": "47,000 ng/g"}, {"measurement": "PCB 95 levels in blood", "setting": "[2]; female mice, subchronic oral exposure, 0.1 mg/kg bw/d", "value": 90, "unit": "ng/g"}, {"measurement": "PCB 95 levels in blood", "setting": "[2]; female mice, subchronic oral exposure, 6.0 mg/kg bw/d", "value": 1200, "unit": "ng/g"}, {"measurement": "PCB 95 levels in brain", "setting": "[2]; mice exposed orally to different doses throughout pregnancy, below the detection limit", "value": "< 140", "unit": "ng/g"}, {"measurement": "PCB 95 levels in brain", "setting": "[2]; offspring of pregnant mice exposed developmentally, postnatal day 7", "value": 50, "unit": "ng/g"}, {"measurement": "PCB 95 levels in brain", "setting": "[2]; offspring of pregnant mice exposed developmentally, postnatal day 21", "value": 70, "unit": "ng/g"}, {"measurement": "PCB 95 levels in blood", "setting": "[2]; postnatal day 21 pups exposed throughout gestation and lactation via the maternal diet", "value": 36, "unit": "ng/g"}]}
